Reference: PMC8151276, “An Integrated Approach toward NanoBRET Tracers for Analysis of GPCR Ligand Engagement” (Molecules, 2021)

What was measured:
[1] = biological target: T1, FZD4 (Homo sapiens, UniProt Q9ULV1); experiment: NanoBRET screen HiBiT-FZD4 in HEK293; assay type: binding; settings: FZD4
T1 construct: purchased Promega (in-house HiBiT-GPCR construct library, NanoBRET)
T1 sequence (Q9ULV1 37-537): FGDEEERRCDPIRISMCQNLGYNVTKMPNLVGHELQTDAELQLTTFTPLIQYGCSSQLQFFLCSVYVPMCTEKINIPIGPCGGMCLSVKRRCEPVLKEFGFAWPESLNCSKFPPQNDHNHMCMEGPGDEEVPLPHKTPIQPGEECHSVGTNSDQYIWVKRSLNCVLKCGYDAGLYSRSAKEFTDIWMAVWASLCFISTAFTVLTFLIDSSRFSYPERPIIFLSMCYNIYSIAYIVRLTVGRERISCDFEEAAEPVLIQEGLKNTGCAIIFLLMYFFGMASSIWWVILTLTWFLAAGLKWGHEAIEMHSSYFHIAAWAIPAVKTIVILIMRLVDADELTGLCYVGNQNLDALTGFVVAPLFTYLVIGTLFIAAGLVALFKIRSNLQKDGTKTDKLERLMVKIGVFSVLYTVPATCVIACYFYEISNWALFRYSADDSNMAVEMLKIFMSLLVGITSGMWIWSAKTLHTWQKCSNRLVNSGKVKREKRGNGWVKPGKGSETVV
Experimental: (§1) Each tracer candidate was screened across the entire library of HiBiT-GPCR constructs using NanoBRET as the detection modality. As depicted in Figure 4A, the specificity of interactions was evaluated through decrease in BRET due to competitive displacement of a bound tracer by excess parental compound. Each tracer was analyzed for binding to each HiBiT-GPCR fusion in the absence and in the presence of competing parental compound. Briefly, HEK293 cells were transfected with HiBiT-GPCR constructs diluted into promoterless DNA to reduce expression and maximize translocation to the cell surface. Each tracer candidate was then screened at concentrations of 1 μM and 0.1 μM across cells expressing these fusions. Cells were treated for 1.5 h with tracer either alone or in the presence of 20 μM competing parental compound (i.e., control). BRET was measured upon addition of purified LgBiT and subsequent complementation with HiBiT genetically fused to a GPCR. The specificity of interactions was assessed through a decrease in BRET signal due to competitive displacement of the bound tracer. To further gauge the robustness of these interactions, the fold response over the control (i.e., BRETtracer/BRETcontrol) was calculated. We chose a 1.5-fold response, which translates to ≥7-fold signal over noise as the minimal threshold required to score an interaction as positive. […]. Below we highlight the screening results obtained for our exemplary fluorescent tracers based on Clozapine, Amitriptyline and AZD1283.
(§2) HiBiT-GPCR DNA constructs were diluted in 10 mM Tris pH 8 to a final concentration of 0.01 μg/μL, arrayed in 96-well plates and stored at −20 °C. For transfection, HEK293 cells were suspended in Opti-MEM (without phenol red) supplemented with 2% fetal bovine serum (Seradigm) and 100 units/mL penicillin–streptomycin (Gibco) at a final concentration of 220,000 cells/mL and dispensed into white 96-well plates at 90 μL/well. Subsequent transfections and screens were carried using an Agilent Bravo Automated Liquid Handling Platform. First, the 96-well HiBiT DNA arrays were diluted 25-fold in Opti-MEM (without serum or phenol red) to a final concentration of 0.0004 μg/μL and 20 μL of the diluted DNAs were transferred into new 96-well plates. Next, promoterless carrier DNA (1 μg/μL) was diluted 25-fold (0.04 μg/μL) and then dispensed into the diluted arrays at 20 μL/well. Following brief mixing, Viafect transfection reagent (Promega) diluted 16-fold into Opti-MEM was dispensed into the plates at 40 μL/well. After mixing by pipetting, plates were incubated for 10 min on the pipetting station deck. The DNA-transfection reagent complexes were then added to plates containing cells. To facilitate the screen, 10 μL of DNA-transfection reagent complexes were added in duplicates to the top 4 and bottom 4 rows, resulting in two identical 48-well arrays per plate. Plates with transfected cells were incubated for 18–20 h at 37 °C/5% CO2. A screen of each tracer across the entire library using two different concentrations requires duplicate plates of transfected cells. Depending on the number of tracers being screened, transfections can be scaled up using the same ratios. The next day, for each tracer, four 20× screening solutions in tracer dilution buffer (Promega) were prepared: two duplicates at final concentration of 20 μM and two duplicates at a final concentration of 2 μM. A competing unmodified compound was added to one of each duplicate at a final concentration of 400 μM. The four resulting solutions were diluted 4-fold in Opti-MEM without serum or phenol red to generate 5× solutions (5 µM and 0.5 µM tracer +/− 100 μM competing compound). To screen the library, a BioTek MultiFlo FX liquid dispenser was used to dispense 22.5 µL of tracer solution to the top 4 rows and 22.5 µL tracer + competing compound solution to the 4 bottom rows. Plates were briefly mixed on an orbital shaker and incubated for 1.5 h at room temperature. […]

[2] = biological target: T2, BDKRB2 (Homo sapiens, UniProt P30411); experiment: NanoBRET screen HiBiT-BDKRB2 in HEK293; assay type: binding; settings: BDKRB2
T2 construct: purchased Promega (in-house HiBiT-GPCR construct library, NanoBRET)
T2 sequence (P30411 1-391): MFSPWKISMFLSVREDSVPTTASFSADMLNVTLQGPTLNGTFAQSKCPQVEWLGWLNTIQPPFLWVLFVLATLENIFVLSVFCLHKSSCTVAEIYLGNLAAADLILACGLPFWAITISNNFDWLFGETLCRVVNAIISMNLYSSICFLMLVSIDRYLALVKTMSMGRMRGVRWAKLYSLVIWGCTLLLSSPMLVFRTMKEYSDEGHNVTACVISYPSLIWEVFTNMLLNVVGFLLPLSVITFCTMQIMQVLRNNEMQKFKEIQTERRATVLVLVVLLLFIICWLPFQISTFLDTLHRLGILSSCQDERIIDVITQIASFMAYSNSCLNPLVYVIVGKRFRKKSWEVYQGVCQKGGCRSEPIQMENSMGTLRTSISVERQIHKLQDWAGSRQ
Experimental: as §1, §2

| SMILES | NanoBRET Fold Response ([1]; tracer 0.1μM) | NanoBRET Fold Response ([1]; tracer 1μM) | NanoBRET Fold Response ([2]; tracer 0.1μM) | NanoBRET Fold Response ([2]; tracer 1μM) |
| --- | --- | --- | --- | --- |
| Cc1nc2n(c(=O)c1CCN1CCC(c3noc4cc(F)ccc34)CC1)CCCC2OC(=O)NCCOCCOCCOCCOCCNC(=O)CCc1ccc2n1[B-](F)(F)[N+]1=C(c3ccc[nH]3)C=CC1=C2 (stereo not shown) [Risperidone-2-NB590] | 1.14 | 1.01 | 0.92 | 0.96 |
| CC(C)N(CC[C@H](c1ccccc1)c1cc(CCNC(=O)CCOCCOCCOCCOCCNC(=O)CCc2ccc3n2[B-](F)(F)[N+]2=C(c4ccc[nH]4)C=CC2=C3)ccc1O)C(C)C [Tolterodine-2-NB590] | 0.95 | 0.96 | 0.96 | 0.95 |
| CC(C)N(CC[C@H](c1ccccc1)c1cc(CCNC(=O)c2ccc(CNC(=O)CCc3ccc4n3[B-](F)(F)[N+]3=C(c5ccc[nH]5)C=CC3=C4)cc2)ccc1O)C(C)C [Tolterodine-BZ-NB590] | 0.93 | 1.07 | 1.04 | 1.08 |
| CCCn1c(=O)c2[nH]c(-c3ccc(OCC(=O)NCCNC(=O)CCOCCNC(=O)c4ccc(CNC(=O)CCc5ccc6n5[B-](F)(F)[N+]5=C(c7ccc[nH]7)C=CC5=C6)cc4)cc3)nc2n(CCC)c1=O [XAC-3-NB590] | 1.15 | 1.12 | 1.00 | 1.14 |
